Assay results: US10961248B2, “Pesticidally active heterocyclic derivatives with sulfur containing substituents” (SYNGENTA PARTICIPATIONS AG, priority 2016, dated 2021)

Assays:
[1] = test system: Diabrotica Balteata (Corn Root Worm); experiment: Example B7: activity against Diabrotica balteata, sprayed maize sprouts; format: in vivo; settings: 96 h, application rate 200 ppm, L2 larvae, 4 days after infestation, read-out: effect in at least one of the two categories (mortality or growth inhibition)
Description: Maize sprouts placed onto an agar layer in 24-well microtiter plates were treated with aqueous test solutions prepared from 10'000 ppm DMSO stock solutions by spraying. After drying, the plates were infested with L2 larvae (6 to 10 per well). The samples were assessed for mortality and growth inhibition in comparison to untreated samples 4 days after infestation.

[2] = test system: Tetranychus urticae (Two-Spotted Spider Mite); experiment: Example B7: activity against Tetranychus urticae, sprayed bean leaf discs; format: in vivo; settings: foliar, 192 h, application rate 200 ppm, mixed population (mobile stages), 8 days after infestation
Description: Bean leaf discs on agar in 24-well microtiter plates were sprayed with aqueous test solutions prepared from 10'000 ppm DMSO stock solutions. After drying the leaf discs were infested with a mite population of mixed ages. The samples were assessed for mortality on mixed population (mobile stages) 8 days after infestation.

[3] = test system: Bemisia tabaci (Cotton White Fly); experiment: Example B5: activity against Bemisia tabaci, sprayed cotton leaf discs; format: in vivo; settings: foliar, 144 h, application rate 200 ppm, adult white flies, 6 days after incubation
Description: Cotton leaf discs were placed on agar in 24-well microtiter plates and sprayed with aqueous test solutions prepared from 10'000 ppm DMSO stock solutions. After drying the leaf discs were infested with adult white flies. The samples were checked for mortality 6 days after incubation.

[4] = test system: Plutella xylostella (Diamond Back Moth); experiment: Example B1: activity against Plutella xylostella, artificial diet in 24-well plates; format: in vivo; settings: 120 h, application rate 200 ppm, L2 larvae on artificial diet, 5 days after infestation, read-out: effect in at least one of the two categories (mortality or growth inhibition)
Description: 24-well microtiter plates with artificial diet were treated with aqueous test solutions prepared from 10'000 ppm DMSO stock solutions by pipetting. After drying, the plates were infested with L2 larvae (10 to 15 per well). The samples were assessed for mortality and growth inhibition in comparison to untreated samples 5 days after infestation.

[5] = test system: Myzus persicae (Green Peach Aphid); experiment: Example B2: activity against Myzus persicae, sprayed sunflower leaf discs; format: in vivo; settings: foliar, 144 h, application rate 200 ppm, aphid population of mixed ages, 6 days after infestation
Description: (§1) Sunflower leaf discs were placed on agar in a 24-well microtiter plate and sprayed with aqueous test solutions prepared from 10'000 ppm DMSO stock solutions. After drying, the leaf discs were infested with an aphid population of mixed ages. The samples were assessed for mortality 6 days after infestation.

[6] = test system: Spodoptera littoralis (Egyptian Cotton Leaf Worm); experiment: Example B7: activity against Spodoptera littoralis, sprayed cotton leaf discs; format: in vivo; settings: foliar, 72 h, application rate 200 ppm, L1 larvae, 3 days after infestation
Description: Cotton leaf discs were placed onto agar in 24-well microtiter plates and sprayed with aqueous test solutions prepared from 10'000 ppm DMSO stock solutions. After drying the leaf discs were infested with five L1 larvae. The samples were assessed for mortality, anti-feeding effect, and growth inhibition in comparison to untreated samples 3 days after infestation. Control of Spodoptera littoralis by a test sample is given when at least one of the categories mortality, anti-feedant effect, and growth inhibition is higher than the untreated sample.

[7] = test system: Myzus persicae (Green Peach Aphid); experiment: Example B3: activity against Myzus persicae, roots of pea seedlings in test solution; format: in vivo; settings: 144 h, test rate 24 ppm, roots of infested pea seedlings in test solution, 6 days
Description: Roots of pea seedlings infested with an aphid population of mixed ages were placed directly in the aqueous test solutions prepared from 10'000 DMSO stock solutions. The samples were assessed for mortality 6 days after placing seedlings in test solutions.

[8] = test system: Euschistus heros (Neotropical Brown Stink Bug); experiment: Example B6: activity against Euschistus heros, sprayed soybean leaf; format: in vivo; settings: 120 h, application rate 200 ppm, N-2 nymphs, 5 days after infestation, read-out: effect in at least one of the two categories (mortality or growth inhibition)
Description: Soybean leaf on agar in 24-well microtiter plates were sprayed with aqueous test solutions prepared from 10'000 ppm DMSO stock solutions. After drying the leaf were infested with N-2 nymphs. The samples were assessed for mortality and growth inhibition in comparison to untreated samples 5 days after infestation.

[9] = test system: Frankliniella occidentalis (Western Flower Thrips); experiment: Example B4: activity against Frankliniella occidentalis, sprayed sunflower leaf discs; format: in vivo; settings: foliar, 168 h, application rate 200 ppm, population of mixed ages, 7 days after infestation
Description: as §1, with “in” for “in a”, “plates” for “plate”, “10'000” for “10'000 ppm”, “drying” for “drying,”, “a Frankliniella” for “an aphid”, “7” for “6”

[10] = test system: Thrips tabaci (Onion Thrips); experiment: Example B7: activity against Thrips tabaci, sprayed sunflower leaf discs; format: in vivo; settings: foliar, 144 h, application rate 200 ppm, population of mixed ages, 6 days after infestation
Description: as §1, with “in” for “in a”, “plates” for “plate”, “drying” for “drying,”, “a Thrips” for “an aphid”

[11] = test system: Spodoptera littoralis (Egyptian Cotton Leaf Worm); experiment: Example B7: activity against Spodoptera littoralis, compound in agar taken up by lettuce roots; format: in vivo; settings: 144 h, test rate 12.5 ppm, systemic via lettuce roots, Spodoptera eggs, 6 days after infestation, read-out: effect in at least one of the three categories (mortality, anti-feeding, or growth inhibition)
From the text: Test compounds were applied by pipette from 10'000 ppm DMSO stock solutions into 24-well plates and mixed with agar. Lettuce seeds were placed onto the agar and the multi well plate was closed by another plate which contained also agar. After 7 days the compound was absorbed by the roots and the lettuce grew into the lid plate. The lettuce leaves were then cut off into the lid plate. Spodoptera eggs were pipetted through a plastic stencil onto a humid gel blotting paper and the lid plate was closed with it. The samples were assessed for mortality, anti-feedant effect and growth inhibition in comparison to untreated samples 6 days after infestation.

## CCS(=O)(=O)c1cc(N=S(C)(C)=O)cnc1-c1nc2cc(C(F)(F)F)ncc2n1C [P2, [5-ethylsulfonyl-6-[3-methyl-6-(trifluoromethyl)imidazo[4,5-c]pyridin-2-yl]-3-pyridyl]imino-dimethyl-oxo-λ^6-sulfane]
[1]
  percent effect (mortality or growth inhibition) at 200 ppm: ≥ 80%
[2]
  mortality at 200 ppm: ≥ 80%
[3]
  mortality at 200 ppm: ≥ 80%
[4]
  percent effect (mortality or growth inhibition) at 200 ppm: ≥ 80%
[5]
  mortality at 200 ppm: ≥ 80%
[6]
  percent control (mortality, anti-feedant effect or growth inhibition) at 200 ppm: ≥ 80%
[7]
  mortality at 24 ppm: ≥ 80%
[8]
  percent effect (mortality or growth inhibition) at 200 ppm: ≥ 80%
[9]
  mortality at 200 ppm: ≥ 80%
[10]
  mortality at 200 ppm: ≥ 80%

## CCS(=O)(=O)c1cc(N=S(C)(=O)C2CC2)cnc1-c1nc2cc(C(F)(F)F)ncc2n1C (stereo not drawn) [P3, cyclopropyl-[[5-ethylsulfonyl-6-[3-methyl-6-(trifluoromethyl)imidazo[4,5-c]pyridin-2-yl]-3-pyridyl]imino]-methyl-oxo-λ^6-sulfane]
[1]
  percent effect (mortality or growth inhibition) at 200 ppm: ≥ 80%
[2]
  mortality at 200 ppm: ≥ 80%
[3]
  mortality at 200 ppm: ≥ 80%
[4]
  percent effect (mortality or growth inhibition) at 200 ppm: ≥ 80%
[5]
  mortality at 200 ppm: ≥ 80%
[6]
  percent control (mortality, anti-feedant effect or growth inhibition) at 200 ppm: ≥ 80%
[11]
  percent effect (mortality, anti-feeding or growth inhibition) at 12.5 ppm: ≥ 80%
[8]
  percent effect (mortality or growth inhibition) at 200 ppm: ≥ 80%
[9]
  mortality at 200 ppm: ≥ 80%

## CCS(=O)(=O)c1cc(N=S(=O)(CC)CC)cnc1-c1nc2cc(C(F)(F)F)ncc2n1C [P4, diethyl-[[5-ethylsulfonyl-6-[3-methyl-6-(trifluoromethyl)imidazo[4,5-c]pyridin-2-yl]-3-pyridyl]imino]-oxo-λ^6-sulfane]
[1]
  percent effect (mortality or growth inhibition) at 200 ppm: ≥ 80%
[2]
  mortality at 200 ppm: ≥ 80%
[3]
  mortality at 200 ppm: ≥ 80%
[4]
  percent effect (mortality or growth inhibition) at 200 ppm: ≥ 80%
[5]
  mortality at 200 ppm: ≥ 80%
[6]
  percent control (mortality, anti-feedant effect or growth inhibition) at 200 ppm: ≥ 80%
[8]
  percent effect (mortality or growth inhibition) at 200 ppm: ≥ 80%

## CCS(=O)(=O)c1cc(N=S2(=O)CCOCC2)ccc1-c1nc2cc(C(F)(F)F)nnc2n1C [P25, 4-[3-ethylsulfonyl-4-[7-methyl-3-(trifluoromethyl)imidazo[4,5-c]pyridazin-6-yl]phenyl]imino-1,4-oxathiane 4-oxide]
other
  melting point: 253 to 255 °C

## CCS(=O)(=O)c1cc(N=S2(=O)CCOCC2)cnc1-c1nc2cc(C(F)(F)F)nnc2n1C [P23, 4-[[5-ethylsulfonyl-6-[7-methyl-3-(trifluoromethyl)imidao[4,5-c]pyridazin-6-yl]-3-pyridyl]imino]-1,4-oxathiane 4-oxide]
[2]
  mortality at 200 ppm: ≥ 80%
[3]
  mortality at 200 ppm: ≥ 80%
[4]
  percent effect (mortality or growth inhibition) at 200 ppm: ≥ 80%
[5]
  mortality at 200 ppm: ≥ 80%
[7]
  mortality at 24 ppm: ≥ 80%
[8]
  percent effect (mortality or growth inhibition) at 200 ppm: ≥ 80%

## CCS(=O)(=O)c1cc(N=S2CCOCC2)cnc1-c1nc2cc(C(F)(F)F)ncc2n1C [P26, 2-[3-ethylsulfonyl-5-(1,4-oxathian-4-ylideneamino)-2-pyridyl]-3-methyl-6-(trifluoromethyl)imidazo[4,5-c]pyridine]
other
  melting point: 214 °C (dec.)

## CCS(=O)(=O)c1cc(N=S(C)(C)=O)cnc1-c1nc2cc(C(F)(F)F)nnc2n1C [P9, [5-ethylsulfonyl-6-[7-methyl-3-(trifluoromethyl)imidazo[4,5-c]pyridazin-6-yl]-3-pyridyl]imidno-dimethyl-oxo-λ^6-sulfane]
[1]
  percent effect (mortality or growth inhibition) at 200 ppm: ≥ 80%
[3]
  mortality at 200 ppm: ≥ 80%
[4]
  percent effect (mortality or growth inhibition) at 200 ppm: ≥ 80%
[5]
  mortality at 200 ppm: ≥ 80%
[6]
  percent control (mortality, anti-feedant effect or growth inhibition) at 200 ppm: ≥ 80%
[7]
  mortality at 24 ppm: ≥ 80%
[8]
  percent effect (mortality or growth inhibition) at 200 ppm: ≥ 80%
[9]
  mortality at 200 ppm: ≥ 80%
[10]
  mortality at 200 ppm: ≥ 80%

## CCS(=O)(=O)c1cc(N=S(C)(=O)C2CC2)cnc1-c1nc2cc(C(F)(F)F)nnc2n1C (stereo not drawn) [P7, cyclopropyl-[[5-ethylsulfonyl-6-[7-methyl-3-(trifluoromethyl)imidazo[4,5-c]pyridazin-6-yl]-3-pyridyl]imino]-methyl-oxo-λ^6-sulfane]
[1]
  percent effect (mortality or growth inhibition) at 200 ppm: ≥ 80%
[2]
  mortality at 200 ppm: ≥ 80%
[3]
  mortality at 200 ppm: ≥ 80%
[4]
  percent effect (mortality or growth inhibition) at 200 ppm: ≥ 80%
[5]
  mortality at 200 ppm: ≥ 80%
[6]
  percent control (mortality, anti-feedant effect or growth inhibition) at 200 ppm: ≥ 80%
[7]
  mortality at 24 ppm: ≥ 80%
[11]
  percent effect (mortality, anti-feeding or growth inhibition) at 12.5 ppm: ≥ 80%
[8]
  percent effect (mortality or growth inhibition) at 200 ppm: ≥ 80%
[9]
  mortality at 200 ppm: ≥ 80%

## CCS(=O)(=O)c1cc(N=S(C)(=O)c2ccc(C)cc2)cnc1-c1cn2cnc(C(F)(F)F)cc2n1 (stereo not drawn) [P10, [5-ethylsulfonyl-6-[7-(trifluoromethyl)imidazo[1,2-c]pyrimidin-2-yl]-3-pyridyl]imino-methyl-oxo-(p-tolyl)-λ^6-sulfane]
other
  melting point: 155 to 157 °C

## CCS(=O)(=O)c1cc(N=S2(=O)CCC2)cnc1-c1nc2cc(C(F)(F)F)ncc2n1C [P11, 1-[[5-ethylsulfonyl-6-[3-methyl-6-(trifluoromethyl)imidazo[4,5-c]pyridin-2-yl]-3-pyridyl]imino]thietane 1-oxide]
[1]
  percent effect (mortality or growth inhibition) at 200 ppm: ≥ 80%
[2]
  mortality at 200 ppm: ≥ 80%
[3]
  mortality at 200 ppm: ≥ 80%
[4]
  percent effect (mortality or growth inhibition) at 200 ppm: ≥ 80%
[5]
  mortality at 200 ppm: ≥ 80%
[6]
  percent control (mortality, anti-feedant effect or growth inhibition) at 200 ppm: ≥ 80%
[7]
  mortality at 24 ppm: ≥ 80%
[8]
  percent effect (mortality or growth inhibition) at 200 ppm: ≥ 80%
[9]
  mortality at 200 ppm: ≥ 80%
